# Where two headings read alike, the source gives them in different places.
# Columns and labels:
# [1] = Tissue stability in human kidney (HPLC); format: in vitro ADME; details: stability relative to MM13902 taken as standard (1.0), values >1.0 = fold increase in stability
# Method: (§1) A preparation of 2% mouse kidney homogenate was mixed with equal volumes of a 200 µg/ml solution of the antibiotic to be tested. The stability of the antibiotic at 37 °C was studied by removal of aliquots and subjecting them to a high pressure liquid chromatographic analysis. The values are given in figures relative to that obtained for MM13902 of U.K. Patent No. 1489235. The values are given in figures relative to that obtained for MM13902 which is taken as standard (1.0). Values greater than 1.0 reflect the fold increase in stability relative to MM13902.
# Staphylococcus aureus = assay: Antibacterial activity in vitro (MIC); format: cell-based
# [2] = Tissue stability in mouse kidney homogenate (HPLC); format: in vitro ADME; details: 37°C, stability relative to MM13902 taken as standard (1.0), values >1.0 = fold increase in stability
# Method: as §1
# Escherichia coli = assay: Antibacterial activity in vitro (MIC); format: cell-based
# Klebsiella aerogenes = assay: Antibacterial activity in vitro (MIC); format: cell-based
# E. coli E96R+ = assay: Antibacterial activity in vivo against experimental mouse infection; details: Escherichia coli, read-out: CD50
# Method: (§2) CD50 mg/kg (total dose) - Compounds dosed at 1 and 5 hours past infection.
# Staph. aureus Smith = assay: as above; details: Staphylococcus aureus; mouse infection with Staph. aureus Smith; total dose; dosed at 1 and 5 hours past infection; read-out: CD50 (the source's name)
# Method: as §2
# [3] = Escherichia coli Ba78R+, read-out: MIC
# [4] = Escherichia coli JT4R+, read-out: MIC
# [5] = Klebsiella aerogenes VA2R+ (printed Va2R+ for Compound B)
compound,measurement,setting,value
C[C@H](O)[C@@H]1C(=O)N2C(C(=O)O)=C(S/C=C\C(=O)OCCN)C[C@H]12 [Compound A],Tissue Stability Values,[1],1.2
same,MIC,"Staphylococcus aureus; ATCC25923, Staphylococcus aureus ATCC 25923",0.1 µg/mL
same,MIC,Staphylococcus aureus; Staphylococcus aureus 68/8484,0.2 µg/mL
same,MIC,Staphylococcus aureus; Staphylococcus aureus 150+,0.2 µg/mL
same,MIC,Staphylococcus aureus; Staphylococcus aureus MB9+,0.2 µg/mL
same,MIC,Staphylococcus aureus; Staphylococcus aureus N36MR,0.4 µg/mL
same,MIC,Staphylococcus aureus; Staphylococcus aureus N71MR,0.8 µg/mL
same,MIC,Staphylococcus aureus; Staphylococcus aureus Smith,0.2 µg/mL
same,MIC,Staphylococcus aureus; Staphylococcus aureus T71+,0.1 µg/mL
same,MIC,Staphylococcus aureus; Staphylococcus aureus T100,0.2 µg/mL
same,Tissue Stability Values,[2],1.3
same,MIC,Escherichia coli,0.8 µg/mL
same,MIC,Escherichia coli; [3],1.6 µg/mL
same,MIC,Escherichia coli; [4],6.2 µg/mL
same,MIC,"Escherichia coli; Escherichia coli JT20R+, read-out: MIC",6.2 µg/mL
same,MIC,Klebsiella aerogenes; Klebsiella aerogenes 185R+,3.1 µg/mL
same,MIC,Klebsiella aerogenes; Klebsiella aerogenes 192R+,6.2 µg/mL
same,MIC,Klebsiella aerogenes; Klebsiella aerogenes Ba95R+,6.2 µg/mL
same,MIC,Klebsiella aerogenes; [5],25 µg/mL
same,ED50,E. coli E96R+,66 mg/kg
same,ED50,Staph. aureus Smith,4.5 mg/kg
"C[C@@H](O)[C@H]1C(=O)N2C(C(=O)O)=C(S/C=C\C(=O)OCCN)C[C@H]12 [Compound B, (5R.6S)-3-[(Z)-2-(2-aminoethyloxycarbonyl)ethenylthio]-6-[(R)-1-hydroxyethyl]-7-oxo-1-azabicyclo[3.2.0]hept-2-ene-2-carboxylic acid]",Tissue Stability Values,[1],2.2
same,MIC,Staphylococcus aureus; Staphylococcus aureus MANSTK 33269,0.4 µg/mL
same,MIC,Staphylococcus aureus; Staphylococcus aureus T2p-,0.1 µg/mL
same,MIC,Staphylococcus aureus; Staphylococcus aureus T97p+,0.1 µg/mL
same,MIC,Staphylococcus aureus; Staphylococcus aureus T100p-,0.02 µg/mL
same,MIC,Staphylococcus aureus; Staphylococcus aureus T118p+,0.05 µg/mL
same,MIC,Staphylococcus aureus; Staphylococcus aureus T120p-,0.02 µg/mL
same,Tissue Stability Values,[2],2.4
same,MIC,Escherichia coli; [3],0.1 µg/mL
same,MIC,Escherichia coli; [4],0.1 µg/mL
same,MIC,"Escherichia coli; Escherichia coli JT56R+, read-out: MIC",0.2 µg/mL
same,MIC,"Escherichia coli; Escherichia coli JT177R, read-out: MIC",0.2 µg/mL
same,MIC,Klebsiella aerogenes; Klebsiella aerogenes Ba95R+,0.4 µg/mL
same,MIC,Klebsiella aerogenes; Klebsiella aerogenes Du185R,0.2 µg/mL
same,MIC,Klebsiella aerogenes; Klebsiella aerogenes Du192R,0.2 µg/mL
same,MIC,Klebsiella aerogenes; [5],0.4 µg/mL
same,ED50,E. coli E96R+,13 mg/kg
same,ED50,Staph. aureus Smith,< 0.4 mg/kg
C[C@H](O)[C@H]1C(=O)N2C(C(=O)O)=C(S/C=C\C(=O)OCCN)C[C@H]12 [Compound C],MIC,Staphylococcus aureus; Staphylococcus aureus 1517,6.2 µg/mL
same,MIC,Staphylococcus aureus; Staphylococcus aureus Russell,0.4 µg/mL
same,MIC,"Escherichia coli; Escherichia coli JT39, read-out: MIC",3.1 µg/mL
same,MIC,Klebsiella aerogenes; Klebsiella aerogenes A,3.1 µg/mL
CC(=O)N/C=C/SC1=C(C(=O)O)N2C(=O)[C@@H]([C@H](C)OS(=O)(=O)O)[C@H]2C1 [MM13902],Tissue Stability Values,[1],1.0
same,Tissue Stability Values,[2],1.0

# From EP0079167A1, “A carbapenem compound, preparation and use” (BEECHAM GROUP PLC, priority 1981, dated 1983)
